Legend:
FLT3-D835Y = target: T1, FLT3-D835Y (Homo sapiens, UniProt P36888, D835Y); experiment: FLT3-D835Y recombinant enzyme kinase assay (AlphaScreen); type: biochemical; conditions: 8 pt, GMean
T1 construct: purchased Invitrogen PV3967
T1 sequence (P36888 27-993 D835Y): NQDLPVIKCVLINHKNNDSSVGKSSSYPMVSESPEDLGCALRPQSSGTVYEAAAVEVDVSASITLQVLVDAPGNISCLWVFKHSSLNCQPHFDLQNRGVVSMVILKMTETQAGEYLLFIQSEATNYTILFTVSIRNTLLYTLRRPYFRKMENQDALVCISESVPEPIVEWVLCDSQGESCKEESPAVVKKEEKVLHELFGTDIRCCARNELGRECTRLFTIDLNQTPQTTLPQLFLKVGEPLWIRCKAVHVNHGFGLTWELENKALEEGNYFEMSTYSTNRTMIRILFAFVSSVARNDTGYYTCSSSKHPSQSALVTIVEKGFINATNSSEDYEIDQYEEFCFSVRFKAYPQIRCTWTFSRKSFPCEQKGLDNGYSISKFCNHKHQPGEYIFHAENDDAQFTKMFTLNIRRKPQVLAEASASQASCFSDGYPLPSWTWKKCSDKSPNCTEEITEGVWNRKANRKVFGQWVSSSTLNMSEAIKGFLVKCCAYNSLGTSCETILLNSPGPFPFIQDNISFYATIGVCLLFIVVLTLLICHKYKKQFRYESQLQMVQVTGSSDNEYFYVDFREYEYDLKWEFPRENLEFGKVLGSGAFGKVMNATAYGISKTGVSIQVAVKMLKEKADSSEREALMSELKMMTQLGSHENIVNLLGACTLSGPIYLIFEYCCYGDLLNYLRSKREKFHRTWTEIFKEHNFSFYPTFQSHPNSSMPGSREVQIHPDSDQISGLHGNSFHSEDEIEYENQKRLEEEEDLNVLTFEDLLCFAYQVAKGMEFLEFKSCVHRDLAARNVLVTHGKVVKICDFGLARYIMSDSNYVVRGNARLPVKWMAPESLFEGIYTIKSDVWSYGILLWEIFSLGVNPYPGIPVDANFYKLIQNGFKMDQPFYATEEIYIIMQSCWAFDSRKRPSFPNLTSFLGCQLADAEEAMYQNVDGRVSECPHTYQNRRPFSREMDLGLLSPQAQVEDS
Method in brief: (§1)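 IC50 values are derived from reduced AlphaScreen signal as inhibitors block tyrosine phosphorylation of a biotinylated poly(Glu4-Tyr) peptide (30 nM) by recombinant kinase. FLT3 variants are run at 10 μM ATP, c-KIT at 100 μM.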

c-KIT = target: T2, c-KIT (Homo sapiens, UniProt P10721); experiment: c-KIT recombinant enzyme kinase assay (AlphaScreen); type: biochemical; conditions: 100 ATP, 8 pt
T2 construct: purchased Millipore 14-559K
T2 sequence (P10721 26-976): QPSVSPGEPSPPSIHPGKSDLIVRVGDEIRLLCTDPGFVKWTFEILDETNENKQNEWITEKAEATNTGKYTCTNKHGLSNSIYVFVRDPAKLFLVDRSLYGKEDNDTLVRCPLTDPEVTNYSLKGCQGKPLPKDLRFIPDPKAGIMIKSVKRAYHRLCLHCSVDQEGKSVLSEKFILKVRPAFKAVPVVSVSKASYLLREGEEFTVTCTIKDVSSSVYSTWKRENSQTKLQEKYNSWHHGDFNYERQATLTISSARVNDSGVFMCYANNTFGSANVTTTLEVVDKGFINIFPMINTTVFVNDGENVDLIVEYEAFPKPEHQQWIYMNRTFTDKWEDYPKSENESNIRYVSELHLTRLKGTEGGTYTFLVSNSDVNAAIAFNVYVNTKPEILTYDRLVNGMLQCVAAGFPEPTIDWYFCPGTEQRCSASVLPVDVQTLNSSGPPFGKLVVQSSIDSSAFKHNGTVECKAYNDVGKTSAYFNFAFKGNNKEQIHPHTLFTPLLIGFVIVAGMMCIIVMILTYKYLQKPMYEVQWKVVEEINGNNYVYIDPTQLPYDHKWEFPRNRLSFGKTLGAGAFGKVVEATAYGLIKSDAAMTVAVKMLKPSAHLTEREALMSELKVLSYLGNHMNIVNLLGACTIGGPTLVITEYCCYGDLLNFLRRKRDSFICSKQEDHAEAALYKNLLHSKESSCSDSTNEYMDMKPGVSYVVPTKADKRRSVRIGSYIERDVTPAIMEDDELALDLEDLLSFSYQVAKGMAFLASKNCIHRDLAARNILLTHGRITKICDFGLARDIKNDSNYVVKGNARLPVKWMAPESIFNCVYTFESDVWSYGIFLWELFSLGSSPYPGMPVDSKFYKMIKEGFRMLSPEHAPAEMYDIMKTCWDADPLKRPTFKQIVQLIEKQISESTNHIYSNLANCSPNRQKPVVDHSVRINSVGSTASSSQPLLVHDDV
Method in brief: as §1

| SMILES | IC50 (FLT3-D835Y) [µM] | IC50 (c-KIT) [µM] |
| --- | --- | --- |
| Cc1cc(CC(=O)Nc2cccc(C(F)(F)F)c2)ccc1-c1cnc2[nH]c(-c3ccccc3)cc2c1 [Compound P-0002, 2-[3-methyl-4-(2-phenyl-1H-pyrrolo[2,3-b]pyridin-5-yl)phenyl]-N-[3-(trifluoromethyl)phenyl]acetamide] | 0.0001 to 10 | – |
| O=C(Cc1ccc(-c2cnc(Nc3cnn(C(F)F)c3)nc2)c(F)c1)Nc1cc(C(F)(F)F)ccn1 [Compound P-0024, 2-[4-[2-[[1-(difluoromethyl)pyrazol-4-yl]amino]pyrimidin-5-yl]-3-fluoro-phenyl]-N-[4-(trifluoromethyl)-2-pyridyl]acetamide] | 0.0001 to 10 | 0.0001 to 10 |
| COc1ncc(NC(=O)Cc2ccc(-c3cnc(Nc4cn[nH]c4)nc3)cc2)cc1C(F)(F)F [Compound P-0025, N-[6-methoxy-5-(trifluoromethyl)-3-pyridyl]-2-[4-[2-(1H-pyrazol-4-ylamino)pyrimidin-5-yl]phenyl]acetamide] | 0.0001 to 10 | 0.0001 to 10 |
| COc1ncc(NC(=O)Cc2ccc(-c3cnc(Nc4cn[nH]c4)nc3)cc2F)cc1C(F)(F)F [Compound P-0026, 2-[2-fluoro-4-[2-(1H-pyrazol-4-ylamino)pyrimidin-5-yl]phenyl]-N-[6-methoxy-5-(trifluoromethyl)-3-pyridyl]acetamide] | 0.0001 to 10 | 0.0001 to 10 |
| Cc1ncc(NC(=O)Cc2ccc(-c3cnc(Nc4cn[nH]c4)nc3)cc2F)cc1C(F)(F)F [Compound P-0027, 2-[2-fluoro-4-[2-(1H-pyrazol-4-ylamino)pyrimidin-5-yl]phenyl]-N-[6-methyl-5-(trifluoromethyl)-3-pyridyl]acetamide] | 0.0001 to 10 | 0.0001 to 10 |
| O=C(Cc1ccc(-c2cnc3[nH]cc(F)c3c2)cc1F)Nc1ccnc(C(F)(F)F)c1 [Compound P-0029, 2-[2-fluoro-4-(3-fluoro-1H-pyrrolo[2,3-b]pyridin-5-yl)phenyl]-N-[2-(trifluoromethyl)-4-pyridyl]acetamide] | 0.0001 to 10 | 0.0001 to 10 |
| O=C(Cc1ccc(-c2cnc3[nH]c(Cl)cc3c2)cc1F)Nc1ccnc(C(F)(F)F)c1 [Compound P-0030, 2-[4-(2-chloro-1H-pyrrolo[2,3-b]pyridin-5-yl)-2-fluoro-phenyl]-N-[2-(trifluoromethyl)-4-pyridyl]acetamide] | – | 0.0001 to 10 |
| CC(=O)c1c[nH]c2ncc(-c3ccc(CC(=O)Nc4ccnc(C(F)(F)F)c4)c(F)c3)cc12 [Compound P-0031, 2-(4-(3-acetyl-1H-pyrrolo[2,3-b]pyridin-5-yl)-2-fluorophenyl)-N-(2-(trifluoromethyl)pyridin-4-yl)acetamide] | 0.0001 to 10 | 0.0001 to 10 |
| O=C(Cc1ccc(-c2cnc3[nH]cc(C(=O)C4CC4)c3c2)cc1F)Nc1ccnc(C(F)(F)F)c1 [Compound P-0032, 2-[4-[3-(cyclopropanecarbonyl)-1H-pyrrolo[2,3-b]pyridin-5-yl]-2-fluoro-phenyl]-N-[2-(trifluoromethyl)-4-pyridyl]acetamide] | 0.0001 to 10 | 0.0001 to 10 |
| O=C(Cc1ccc(-c2cnc(Nc3cnn4ccccc34)nc2)cc1F)Nc1ccnc(C(F)(F)F)c1 [Compound P-0033, 2-[2-fluoro-4-[2-(pyrazolo[1,5-a]pyridin-3-ylamino)pyrimidin-5-yl]phenyl]-N-[2-(trifluoromethyl)-4-pyridyl]acetamide] | 0.0001 to 10 | 0.0001 to 10 |
| COc1ncc(NC(=O)Cc2ccc(-c3cnc4[nH]cc(F)c4c3)cc2F)cc1C(F)(F)F [Compound P-0034, 2-[2-fluoro-4-(3-fluoro-1H-pyrrolo[2,3-b]pyridin-5-yl)phenyl]-N-[6-methoxy-5-(trifluoromethyl)-3-pyridyl]acetamide] | 0.0001 to 10 | 0.0001 to 10 |
| COc1ncc(NC(=O)Cc2ccc(-c3cnc4[nH]cc(C(C)=O)c4c3)cc2F)cc1C(F)(F)F [Compound P-0035, 2-[4-(3-acetyl-1H-pyrrolo[2,3-b]pyridin-5-yl)-2-fluoro-phenyl]-N-[6-methoxy-5-(trifluoromethyl)-3-pyridyl]acetamide] | 0.0001 to 10 | 0.0001 to 10 |
| COc1ncc(NC(=O)Cc2ccc(-c3cnc4[nH]cc(C(=O)C5CC5)c4c3)cc2F)cc1C(F)(F)F [Compound P-0036, 2-[4-[3-(cyclopropanecarbonyl)-1H-pyrrolo[2,3-b]pyridin-5-yl]-2-fluoro-phenyl]-N-[6-methoxy-5-(trifluoromethyl)-3-pyridyl]acetamide] | 0.0001 to 10 | 0.0001 to 10 |
| COc1ncc(NC(=O)Cc2ccc(-c3cnc(Nc4cnn5ccccc45)nc3)cc2F)cc1C(F)(F)F [Compound P-0037, 2-[2-fluoro-4-[2-(pyrazolo[1,5-a]pyridin-3-ylamino)pyrimidin-5-yl]phenyl]-N-[6-methoxy-5-(trifluoromethyl)-3-pyridyl]acetamide] | 0.0001 to 10 | 0.0001 to 10 |
| CC(C)(C)c1ccc(NC(=O)Cc2ccc(-c3cnc4[nH]cc(F)c4c3)cc2F)cn1 [Compound P-0043, N-(6-tert-butyl-3-pyridyl)-2-[2-fluoro-4-(3-fluoro-1H-pyrrolo[2,3-b]pyridin-5-yl)phenyl]acetamide] | 0.0001 to 10 | 0.0001 to 10 |
| O=C(Cc1ccc(-c2cnc3[nH]cc(F)c3c2)cc1F)Nc1cc(Cl)c(C2CC2)cn1 [Compound P-0044, N-(4-chloro-5-cyclopropyl-2-pyridyl)-2-[2-fluoro-4-(3-fluoro-1H-pyrrolo[2,3-b]pyridin-5-yl)phenyl]acetamide] | 0.0001 to 10 | 0.0001 to 10 |
| COc1ncc(NC(=O)Cc2ccc(-c3cnc4[nH]cc(Cl)c4n3)cc2F)cc1C(F)(F)F [Compound P-0047, 2-[4-(7-chloro-5H-pyrrolo[2,3-b]pyrazin-2-yl)-2-fluoro-phenyl]-N-[6-methoxy-5-(trifluoromethyl)-3-pyridyl]acetamide] | 0.0001 to 10 | 0.0001 to 10 |
| COc1ncc(NC(=O)Cc2ccc(-c3cnc4[nH]cc(F)c4c3)c(F)c2)cc1C(F)(F)F [Compound P-0048, 2-[3-fluoro-4-(3-fluoro-1H-pyrrolo[2,3-b]pyridin-5-yl)phenyl]-N-[6-methoxy-5-(trifluoromethyl)-3-pyridyl]acetamide] | 0.0001 to 10 | 0.0001 to 10 |
| COc1nn(C[C@H](C)O)cc1Nc1ncc(-c2ccc(CC(=O)Nc3cncc(C(F)(F)F)c3)c(F)c2)cn1 [Compound P-0050, 2-[2-fluoro-4-[2-[[1-[(2S)-2-hydroxypropyl]-3-methoxy-pyrazol-4-yl]amino]pyrimidin-5-yl]phenyl]-N-[5-(trifluoromethyl)-3-pyridyl]acetamide] | 0.0001 to 10 | 0.0001 to 10 |
| O=C(Cc1ccc(-c2cnc3c(c2)C2(CC2)C(=O)N3)cc1F)Nc1cncc(C(F)(F)F)c1 [Compound P-0064, 2-(2-fluoro-4-(2′-oxo-1′,2′-dihydrospiro[cyclopropane-1,3′-pyrrolo[2,3-b]pyridin]-5′-yl)phenyl)-N-(5-(trifluoromethyl)pyridin-3-yl)acetamide] | – | 0.0001 to 10 |
| O=C(Cc1ccc(-c2cnc(Nc3cnn4ccccc34)nc2)cc1)Nc1cncc(C(F)(F)F)c1 [Compound P-0074, 2-[4-[2-(pyrazolo[1,5-a]pyridin-3-ylamino)pyrimidin-5-yl]phenyl]-N-[5-(trifluoromethyl)-3-pyridyl]acetamide] | 0.0001 to 10 | – |
| O=C(Cc1cc(F)c(-c2cnc(Nc3cnn4ccccc34)nc2)cc1F)Nc1cncc(C(F)(F)F)c1 [Compound P-0075, 2-[2,5-difluoro-4-[2-(pyrazolo[1,5-a]pyridin-3-ylamino)pyrimidin-5-yl]phenyl]-N-[5-(trifluoromethyl)-3-pyridyl]acetamide] | 0.0001 to 10 | – |
| Cn1cc(Nc2ncc(-c3ccc(CC(=O)NCc4ccccn4)c(F)c3)cn2)cn1 [Compound P-0088, 2-[2-fluoro-4-[2-[(1-methylpyrazol-4-yl)amino]pyrimidin-5-yl]phenyl]-N-(2-pyridylmethyl)acetamide] | – | 0.0001 to 10 |
| Cn1cc(Nc2ncc(-c3ccc(CC(=O)NCc4ccc(C(F)(F)F)cn4)cc3)cn2)cn1 [Compound P-0162, 2-[4-[2-[(1-methylpyrazol-4-yl)amino]pyrimidin-5-yl]phenyl]-N-[[5-(trifluoromethyl)-2-pyridyl]methyl]acetamide] | – | 0.0001 to 10 |
| Cn1cnc(Nc2ncc(-c3ccc(CC(=O)Nc4cc(C(C)(F)F)ccn4)cc3F)cn2)c1 [Compound P-0171, N-[4-(1,1-difluoroethyl)-2-pyridyl]-2-[3-fluoro-4-[2-[(1-methylimidazol-4-yl)amino]pyrimidin-5-yl]phenyl]acetamide] | – | 0.0001 to 10 |

Source: US10160747B2, “Compounds and methods for kinase modulation, and indications therefor” (Plexxikon Inc., priority 2016, dated 2018)
